Test results published in ChEMBL document CHEMBL1122588 (J Med Chem, 1984).
Several values for one entry are separate records, joined by “and”; a condition that tells them apart may be missing. Identical values can stand only once.

Assays:
L1210 = assay: cells; details: Mus musculus, L1210, 72 h, read-out: ID50
Description: In vitro concentration required to reduce the murine L1210 leukemia cells in cultures to 50% after a period of 72 hr.

P388 [1] = assay: animal or person; details: Mus musculus
Description: In vivo antitumor activity in mice bearing P388 leukemia cells at an optimal dose of 100 mg/kg given on days 1,5,9

P388 [2] = assay: animal or person; details: Mus musculus; remark: listed apart in the source
Description: In vivo antitumor activity in mice bearing P388 leukemia cells at an optimal dose of 300 mg/kg given on days 1,5,9.

P388 [3] = assay: animal or person; details: Mus musculus; remark: listed apart in the source
Description: In vivo antitumor activity in mice bearing P388 leukemia cells at an optimal dose of 65 mg/kg given on days 1,5,9

P388 [4] = assay: animal or person; details: Mus musculus; remark: listed apart in the source
Description: In vivo antitumor activity in mice bearing P388 leukemia cells at an optimal dose of 20 mg/kg given on days 1,5,9

physchem = details: Intestine
Description: Compound was evaluated for its rate of absorption from the intestine and pKa value was determined, lower value indicate high absorption from gastrointestinal tract.

P388 [5] = assay: animal or person; details: Mus musculus; remark: listed apart in the source
Description: In vivo antitumor activity in mice bearing P388 leukemia cells at an optimal dose of 100 mg/kg given on days 1,5,9.

P388 [6] = assay: animal or person; details: Mus musculus; remark: listed apart in the source
Description: In vivo antitumor activity in mice bearing P388 leukemia cells at an optimal dose of 45 mg/kg given on days 1,5,9

P388 [7] = assay: animal or person; details: Mus musculus; remark: listed apart in the source
Description: In vivo antitumor activity in mice bearing P388 leukemia cells at an optimal dose of 50 mg/kg given on days 1,5,9

P388 [8] = assay: animal or person; details: Mus musculus; remark: listed apart in the source
Description: In vivo antitumor activity in mice bearing P388 leukemia cells at an optimal dose of 30 mg/kg given on days 1,5,9

P388 [9] = assay: animal or person; details: Mus musculus; remark: listed apart in the source
Description: In vivo antitumor activity in mice bearing P388 leukemia cells at an optimal dose of 45 mg/kg given on days 1,5,9.

P388 [10] = assay: animal or person; details: Mus musculus; remark: listed apart in the source
Description: In vivo antitumor activity in mice bearing P388 leukemia cells at an optimal dose of 30 mg/kg given on days 1,5,9.

P388 [11] = assay: animal or person; details: Mus musculus; remark: listed apart in the source
Description: In vivo antitumor activity in mice bearing P388 leukemia cells at an optimal dose of 65 mg/kg given on days 1,5,9.

P388 [12] = assay: animal or person; details: Mus musculus; remark: listed apart in the source
Description: In vivo antitumor activity in mice bearing P388 leukemia cells at an optimal dose of 13.3 mg/kg given on days 1,5,9.

P388 [13] = assay: animal or person; details: Mus musculus; remark: listed apart in the source
Description: In vivo antitumor activity in mice bearing P388 leukemia cells at an optimal dose of 20 mg/kg given on days 1,5,9.

## CNC(=O)c1cccc2c(Nc3ccc(NS(C)(=O)=O)cc3OC)c3ccccc3nc12
L1210
  IC50: 270 nM
P388 [1]
  ILS at 100 mg/kg: 128%
P388 [2]
  ILS at 300 mg/kg: 127%

## COc1cc(NS(C)(=O)=O)ccc1Nc1c2ccccc2nc2c(C)cccc12
Nucleic Acid
  Log K: 6.03 and 5.96
L1210
  IC50: 30 nM
P388 [3]
  ILS at 65 mg/kg: 47%
P388 [4]
  ILS at 20 mg/kg: 143%

## COc1cc(NS(C)(=O)=O)ccc1Nc1c2cccc(C)c2nc2c(C(N)=O)cccc12
Nucleic Acid
  Log K: 6.62 and 6.92
L1210
  IC50: 47 nM
physchem
  pKa: 6.43
P388 [5]
  ILS at 100 mg/kg: 25%
P388 [4]
  ILS at 20 mg/kg: 113%

## COc1cc(NS(C)(=O)=O)ccc1Nc1c2cccc(OC)c2nc2c(OC)cccc12
Nucleic Acid
  Log K: 6.32 and 6.4
L1210
  IC50: 65 nM
P388 [5]
  ILS at 100 mg/kg: 48%
P388 [6]
  ILS at 45 mg/kg: 99%

## CNC(=O)c1cccc2c(Nc3ccc(NS(C)(=O)=O)cc3OC)c3cccc(C)c3nc12 [ASULACRINE]
physchem
  pKa: 6.4
P388 [4]
  ILS at 20 mg/kg: 200%
P388 [7]
  ILS at 50 mg/kg: 164%

## COc1cc(NS(C)(=O)=O)ccc1Nc1c2ccccc2nc2c(OC)cccc12
Nucleic Acid
  Log K: 5.94 and 6
L1210
  IC50: 40 nM
P388 [8]
  ILS at 30 mg/kg: 139%
P388 [9]
  ILS at 45 mg/kg: 23%

## COc1cc(NS(C)(=O)=O)ccc1Nc1c2ccccc2nc2c(C(N)=O)cccc12
L1210
  IC50: 270 nM
P388 [5]
  ILS at 100 mg/kg: 11%
P388 [10]
  ILS at 30 mg/kg: 113%

## COc1cc(NS(C)(=O)=O)ccc1Nc1c2cccc(C)c2nc2c(C)cccc12
Nucleic Acid
  Log K: 6.14 and 6.46
L1210
  IC50: 110 nM
P388 [5]
  ILS at 100 mg/kg: 86%
P388 [9]
  ILS at 45 mg/kg: 135%

## COc1cc(NS(C)(=O)=O)ccc1Nc1c2ccccc2nc2ccccc12 [AMSACRINE]
Nucleic Acid
  Log K: 5.57 and 5.65
P388 [11]
  ILS at 65 mg/kg: 63%
P388 [12]
  ILS at 13.3 mg/kg: 78%

## COc1cc(NS(C)(=O)=O)ccc1Nc1c2cccc(C)c2nc2c(OC)cccc12
Nucleic Acid
  Log K: 6.21 and 6.19
L1210
  IC50: 30 nM
physchem
  pKa: 6.9
P388 [5]
  ILS at 100 mg/kg: 69%
P388 [8]
  ILS at 30 mg/kg: 109%

## CNC(=O)c1cccc2c(Nc3ccc(NS(C)(=O)=O)cc3OC)c3cccc(OC)c3nc12
Nucleic Acid
  Log K: 6.24 and 6.65
L1210
  IC50: 17 nM
physchem
  pKa: 6.55
P388 [5]
  ILS at 100 mg/kg: 34%
P388 [13]
  ILS at 20 mg/kg: 139%
